In one data set the test system is JIMT-1 tumour cells. As to the kind of experiment: JIMT-1 breast cancer xenograft model. The data set is classed as in vivo, NOD/SCID mice. Here is the method: 80 mice were assigned to 8 treatment groups when tumour volumes averaged ˜160.66 mm^3 on Study Day 0. Dosing commenced the following day and all animals were dosed intravenously with ADC Example 3, sacituzumab govitecan or unconjugated sacituzumab. The study was terminated on the Study Day 60.

Data set [1] in a line: Caco-2 cell permeability assay. The class given is in vitro ADME. The conditions noted are these: human, Caco-2, pH 7.4, basal to apical Papp, pH 7.4, 2.5 h. The method, then: (§1) Certain Example compounds and Comparative Example 1 were tested for their apical to basal (AB) and basal to apical (BA) permeability in Caco-2 cells.
(§2) Cell Culture: Caco-2 cells were grown for 10 days in 96-well plates in HBSS buffer containing 10 mM HEPES. Both the apical and basal pH was buffered at pH 7.4. The apical/basal volumes were 75 μl and 250 μl respectively. The incubation time was 2.5 h at 37° C. (without shaking) under 5% CO2 & 95% relative humidity.
(§3) Cell Seeding: Cells were seeded at a density of 18750 cells/well (membrane area=0.0804 cm^2) in a 96 well plate.
(§4) AB Assay: 75 μl of cell suspension was added at a density 2.5×10^5 cells/ml to the apical wells. 40 ml media was added to the feeder tray. The plates were placed in the incubator (37° C., 5% CO2 and controlled humidity). The Caco-2 cells were grown for 10 days with a media change on every alternate day.
(§5) BA Assay: 25 μl of cell suspension was added at a density of 7.5×10^5 cells/ml to the bottom side (keeping the plate upside down) of apical wells. The plate (upside down position) was placed in the incubator (37° C., 5% CO2 and 95% Relative humidity) for 2 h. The plate was turned right side up. 75 μl media was added to the apical wells and 40 ml media to the feeder tray.
(§6) Permeablity Assay: The apical and basal wells were washed with buffer (pH 7.4) and 250 μl buffer was added to the wells of the basal plate. 75 μl of compound solution (2 μM, dissolved in water with 1% DMSO) was transferred to the apical wells (n=2). The apical plate was placed onto the basal plate. The lid was placed on to prevent evaporation. The assembly was incubated at 37° C. for 2.5 h (without shaking) under 5% CO2 and 95% relative humidity. After incubation the apical plate was separated from the basal plate. Aliquots were taken out from the acceptor and donor wells, diluted and quantified using LC-MS/MS along with initial donor samples.
(§7) Membrane Integrity Test: Solution in the apical wells was discarded by inverting the plate and soaking onto tissue paper. 250 μl buffer (pH 7.4) was added to each well of basal plate and 75 μl of Lucifer Yellow (LY; 0.1 mg/ml) in buffer (pH 7.4) to the wells of apical plate. The apical plate was placed onto the basal plate and the lid used to prevent evaporation. The assembly was incubated at 37° C. for 1 h (without shaking) under 5% CO2 and 95% relative humidity. The apical plate was separated from the basal plate. Fluorescence (Ex: 432 nm, Em: 530 nm) of aliquots (100 ul) was measured from basal wells. Fluorescence of 100 μl buffer (pH 7.4) and 100 μl LY(0.1 mg/ml) was also measured. Wells having more than 1% fluorescence intensity with respect to 0.1 mg/ml LY were considered non-integrated membrane. Such wells, if any, were not considered for permeability calculation.
(§8) Calculation: Drug was detected and quantified by LC-MS/MS. Data generated took the form of an apparent permeability (Papp) value. Papp=[Va/(AreaxTime)]×(LC-MS Area of Acceptor sample×Sample dilution factor/LC-MS Area of Initial Donor). Va=Volume of Acceptor Well (in ml)=0.25, Vd=Volume of Donor Well (in ml)=0.075, Area=Surface area of the membrane (cm2)=0.0804, Time=Time of incubation (sec)=9000 Results: The results of the assay are shown in Table 3 below.

The next data set concerns Caco-2 cells. As to the kind of experiment: Caco-2 cell permeability assay. The class given is in vitro ADME. The note with it: apical to basal Papp, 2 μM, pH 7.4, 2.5 h. Here is the method:
as §1, §2, §3, §4, §5, §6, §7, §8

The test system of data set [2] is SU-DHL-10 cell line (human B cell lymphoma). As to the kind of experiment: Cell cytotoxicity in SU-DHL-10 cell line (CellTiter-Glo). The data set is classed as cell-based. The note with it: 72 h treatment, CTG. Here is the method: Certain Example compounds of the invention and Comparator Compound 1 were tested in the SU-DHL-10 cell line (human B cell lymphoma). Compounds which show efficacy in this assay are expected to be useful as agents for treating or preventing hyperproliferative disorders such as cancer.
Cells were seeded in 96-well microplates and treated with compounds or cisplatin (as a positive control) at 9 increasing concentrations in technical triplicate. […] On day 1, 90 μL of various cell suspensions with the number of cells ranging from 5000-8000 cells/well were seeded into wells of a 96-well plate (Corning). The number of cells to be seeded was previously determined. • 2. All 96-wells plates with cells were placed in an incubator overnight at 37° C. with 5% CO2. • 3. On day 2, cells were observed under a microscope ensuring the cells treated with vehicle control were in good condition. • 4. A dilution series of the test compounds and cisplatin were prepared at 10× the final concentrations required. 10 μL/well of 10× compound solution was added to the corresponding plates. The final volume was 100 μL/well for all the plates. Final DMSO concentration was 0.1%. • 5. On day 5 (after 72 hours of incubation), 50 μL of CTG reagent was added to each well. • 6. Contents were mixed for 5 minutes on an orbital shaker to facilitate cell lysis. • 7. The plate was allowed to incubate at room temperature for 10 minutes to stabilize luminescent signals.
Luminescence was recorded using an EnVision Multi Label Reader. Data analysis was performed using GraphPad Prism 8.0.
To calculate IC50, a concentration-response curve was generated using a nonlinear regression model with a sigmoidal concentration response. The formula for calculating the % of viable cells was shown below, and the IC50s are automatically generated by GraphPad Prism 8.0.
(LumTest article=luminescence in test article treated well; LumNone treated=luminescence in vehicle treated well; LumMedium control=luminescence in a well containing only medium and no cells; LumNone treated-LumMedium control was set as 100%)

For a further data set, the system named is VcaP tumour cells. The data set can be described thus: VCaP prostate cancer xenograft model. The data set is classed as in vivo, CB17/SCID mice. The source says: All mice received two doses of test agent, on Study Day 1 and Study Day 8. The study was terminated on Study Day 30.
The test system of a further data set is LNCaP tumour cells. The data set can be described thus: LNCaP prostate cancer xenograft model. The conditions noted are these: for Day 28 tumour volume (mm^3, mean ± SEM) / Tumour growth inhibition (TGI, %): IV, Q7D (×3); for Tumour growth inhibition (TGI, %): day 28. The data set is classed as in vivo, NOD SCID mice.
The mark [3] stands for this setting: 2.5 mg/kg IV QW × 2 weeks (Group 5 also got ADC Example 3 5 mg/kg on Day 27).
[4] abbreviates: 5 mg/kg IV QW × 2 weeks (Group 4 also got ADC Example 3 5 mg/kg on Day 27).

Text for LNCaP tumour cells: A total of 84 male NOD SCID mice aged 5-8 weeks and weighing 25-30 g were used for the study.

For the molecule sacituzumab govitecan, in the data set on JIMT-1 tumour cells (2.5 mg/kg (Group 5)), the “tumour volume compared to Groups 2 and 3 (unconjugated sacituzumab)” value is reported as “no significant difference”. In addition, the results for the “ΔTGI (Study Day 28)” value in the data set with JIMT-1 tumour cells (setting [3]) and in the data set with JIMT-1 tumour cells (setting [4]) were 13.13% and 23.39%, respectively. In the data set with JIMT-1 tumour cells (5 mg/kg (Group 4)), the “tumour volume compared to unconjugated sacituzumab Group 2 (5 mg/kg) and Group 3 (2.5 mg/kg)” value is given as “significant decrease”. Besides, the “tumour volumes compared to vehicle alone (Group 1)” value in the data set with JIMT-1 tumour cells (all concentrations tested (ADC Example 3: 2.5, 5, 10 mg/kg; sacituzumab govitecan: 5 and 2.5 mg/kg)) is reported as “significant decrease”.

For sacituzumab, the “tumour volume compared to vehicle alone (Group 1)” value with JIMT-1 tumour cells (2.5 mg/kg (Group 3), p=0.0586) is given as “no significant difference”; in the data set on JIMT-1 tumour cells (5 mg/kg (Group 2), p=0.0028), “significant decrease”. In addition, the “ΔTGI (Study Day 28)” value with JIMT-1 tumour cells (setting [3]) came to 12.11%; in the data set on JIMT-1 tumour cells (setting [4]), 14.44%. Besides, in the data set on JIMT-1 tumour cells (p=0.9837), the “tumour volume, 5 mg/kg (Group 2) versus 2.5 mg/kg (Group 3)” value was “no significant difference”.

Turning to `CNCc1cnc2ccc(-c3ccc(F)cc3OCCc3c(C(O)C(C)(C)C)nn(C)c3C)cn12` (single isomer, unassigned) [Example 9, 1-(4-(2-(5-fluoro-2-(3-((methylamino)methyl)imidazo[1,2-a]pyridin-6-yl)phenoxy)ethyl)-1,5-dimethyl-1H-pyrazol-3-yl)-2,2-dimethylpropan-1-ol], the apparent permeability from basolateral to apical (Papp B→A) at 2.5 h, 2 μM in data set [1] amounted to 8.02 ×10⁻⁶ cm/s. The “Caco-2 A-B” value with Caco-2 cells was determined as 0.26 ×10⁻⁶ cm/s. The same molecule registered a 50% inhibitory concentration (IC50) in data set [2] of 0.6 nM.

Molecule `Cc1c(CCOc2c(-c3ccc4ncc(CN(C)C)n4c3)ccc(F)c2F)c(C(O)C(C)(C)C)nn1C` (single isomer, unassigned) [Example 15, 1-(4-(2-(6-(3-((dimethylamino)methyl)imidazo[1,2-a]pyridin-6-yl)-2,3-difluorophenoxy)ethyl)-1,5-dimethyl-1H-pyrazol-3-yl)-2,2-dimethylpropan-1-ol] displayed a Papp B→A at 2.5 h, 2 μM in data set [1] of 7.44 ×10⁻⁶ cm/s. Moreover, the “Caco-2 A-B” value with Caco-2 cells stood at 1.345 ×10⁻⁶ cm/s. In data set [2], half-maximal inhibition (IC50) was put at 1.2 nM.

For the molecule ifinatamab, the “ΔTGI (Study Day 17)” value is recorded as 8.47% in the data set on VcaP tumour cells (2.5 mg/kg IV QW × 2 weeks) and 12.44% with VcaP tumour cells (5 mg/kg IV QW × 2 weeks). In addition, the “tumour volumes compared to vehicle alone (Group 1)” value in the data set on VcaP tumour cells (all concentrations tested (ADC Example 4: 2.5, 5, 10 mg/kg; unconjugated ifinatamab: 5 and 2.5 mg/kg)) is listed as “no significant difference”. In addition, the “LNCaP tumour volume compared to the vehicle control” value with LNCaP tumour cells (5 mg/kg) and in the data set with LNCaP tumour cells (10 mg/kg) was “no significant effect” in each case. Also, the “Day 28 tumour volume (mm^3, mean ± SEM)” value is 551.4 ± 73.1 mm^3 in the data set on LNCaP tumour cells (5 mg/kg) and 666.56 ± 103.2 mm^3 in the data set with LNCaP tumour cells (10 mg/kg). The results for the “Tumour growth inhibition (TGI, %)” value in the data set with LNCaP tumour cells (5 mg/kg) and with LNCaP tumour cells (10 mg/kg) were 30.6% and 13.0%, respectively.

B1: ifinatamab-DXd: ifinatamab-deruxtecan, comparator ADC in prostate xenograft models (conjugate, chains of the INN, looked up)
VH: QVQLVQSGAEVKKPGSSVKVSCKASGYTFTNYVMHWVRQAPGQGLEWMGYINPYNDDVKYNEKFKGRVTITADESTSTAYMELSSLRSEDTAVYYCARWGYYGSPLYYFDYWGQGTLVTVSS
VL: EIVLTQSPATLSLSPGERATLSCRASSRLIYMHWYQQKPGQAPRPLIYATSNLASGIPARFSGSGSGTDFTLTISSLEPEDFAVYYCQQWNSNPPTFGQGTKVEIK
modifications: deruxtecan payload
notes: ifinatamab-deruxtecan, comparator ADC in prostate xenograft models
Take B1: in the data set on VcaP tumour cells (2.5 mg/kg (Group 5)), the “tumour volume compared to Groups 2, 3 and 4” value is reported as “no significant difference”; the “tumour volume compared to vehicle alone (Group 1)” value was “no significant difference”. The “ΔTGI (Study Day 17)” value in the data set with VcaP tumour cells (2.5 mg/kg IV QW × 2 weeks) is 5.24%. Further, in the data set on VcaP tumour cells (5 mg/kg (Group 4)), the “tumour volume compared to unconjugated ifinatamab 5 mg/kg and 2.5 mg/kg” value was “significantly higher tumour volume”; the “tumour volume compared to vehicle alone (Group 1)” value is recorded as “significantly higher tumour volume”. Besides, the “ΔTGI (Study Day 17)” value in the data set with VcaP tumour cells (5 mg/kg IV QW × 2 weeks) was 2.86%. For the same molecule, in the data set on LNCaP tumour cells (5 mg/kg), the “LNCaP tumour volume compared to the vehicle control” value was “slowed the growth of LNCaP tumours to a lesser extent”; the “Day 28 tumour volume (mm^3, mean ± SEM)” value turned out to be 364.6 ± 51.7 mm^3; the “Tumour growth inhibition (TGI, %)” value is recorded as 58.8%. In the data set on LNCaP tumour cells (10 mg/kg), the “LNCaP tumour volume compared to the vehicle control” value was “significantly reduced the mean volume”; the “Day 28 tumour volume (mm^3, mean ± SEM)” value amounted to 259.5 ± 50.3 mm^3; the “Tumour growth inhibition (TGI, %)” value amounted to 75.0%.

For the origin of these results see patent US12599676B2, “Cytotoxic imidazo[1,2-A]pyridine compounds and their use in therapy” (MyricX Pharma Limited, priority 2022, dated 2026).
